Test results: ChEMBL document CHEMBL4364298
Activity calls are given as the source filed them. No cut-off for these calls is given here.

Biological target: Histamine H1 receptor (Homo sapiens) (UniProt P35367)
Assay: Antagonist activity at H1R in human HeLa cells assessed as inhibition of histamine-induced intracellular calcium mobilization at 10 times Ki incubated for 18 to 20 hrs prior to Fluo-4NW dye addition for 1 hr followed by compound washout and subsequent stimulation with histamine at 5 mins interval and measured up to 2 hrs by fluorescence assay
Format: functional, cell-based

Histamine H1 receptor (Homo sapiens), sequence (P35367 whole entry): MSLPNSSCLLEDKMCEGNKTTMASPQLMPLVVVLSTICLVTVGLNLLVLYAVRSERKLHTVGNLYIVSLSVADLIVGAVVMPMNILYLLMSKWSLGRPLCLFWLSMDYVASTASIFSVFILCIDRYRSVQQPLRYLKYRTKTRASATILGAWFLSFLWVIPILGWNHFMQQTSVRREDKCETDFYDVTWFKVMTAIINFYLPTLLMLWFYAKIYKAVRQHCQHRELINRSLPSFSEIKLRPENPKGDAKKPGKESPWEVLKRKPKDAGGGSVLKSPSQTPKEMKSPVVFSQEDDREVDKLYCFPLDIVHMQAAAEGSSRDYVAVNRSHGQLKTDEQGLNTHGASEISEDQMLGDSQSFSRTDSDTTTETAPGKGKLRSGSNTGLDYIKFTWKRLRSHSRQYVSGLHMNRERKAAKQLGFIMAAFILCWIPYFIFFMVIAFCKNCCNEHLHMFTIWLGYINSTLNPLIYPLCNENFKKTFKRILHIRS

Clc1ccc2c(c1)CCc1cccnc1C2=C1CCN(CC2CCCC2)CC1
inhibition: 100%

Clc1ccc2c(c1)CCc1cccnc1C2=C1CCN(CC2CC2)CC1
inhibition: 100%

Clc1ccc2c(c1)CCc1cccnc1C2=C1CCN(CC2CCC2)CC1
inhibition: 100%

Cc1cncc(CN2CCC(=C3c4ccc(Cl)cc4CCc4cccnc43)CC2)c1
inhibition: Active
